Test results taken from ChEMBL document CHEMBL4130573, “Antitubercular and Cytotoxic Chlorinated seco-Cyclohexenes from Uvaria alba” (J Nat Prod, 2017).
Converted amounts (≈) assume the structure as drawn. The source made the active and inactive calls. No cut-off for these calls is given here.

What was measured:
[1] = test system: Mycobacterium tuberculosis; assay: Antitubercular activity against Mycobacterium tuberculosis H37Rv by MABA method; type: functional
[2] = test system: HeLa; assay: Cytotoxic activity against human HeLa cells by Cell-titer blue assay; type: functional, cell-based
[3] = test system: HUVEC; assay: Antiproliferative activity against HUVEC cells by Cell-titer blue assay; type: functional, cell-based; conditions: Homo sapiens
[4] = test system: K562; assay: Antiproliferative activity against human K562 cells by Cell-titer blue assay; type: functional, cell-based
[5] = test system: HeLa; assay: Cytostatic activity against human HeLa cells at 1 to 50 uM by Cell-titer blue assay; type: functional, cell-based

CC(=O)O[C@@H]1C(=O)C=COC=C1COC(=O)c1ccccc1
MIC [1]: 25 µM (≈ 7.56 µg/mL)
IC50 [2]: 25.5 µM
IC50 [3]: 9.9 µM
IC50 [4]: 7.9 µM

O=C(OC/C=C\[C@H](Cl)[C@@](O)(CO)COC(=O)c1ccccc1)c1ccccc1 (relative stereo)
MIC [1]: 38 µM (≈ 15.4 µg/mL)
IC50 [2]: > 45 µM
IC50 [3]: > 45 µM
IC50 [4]: > 45 µM

CC(=O)OC/C(=C\[C@@H](Cl)[C@H](O)COC(=O)c1ccccc1)COC(=O)c1ccccc1
MIC [1]: 26 µM (≈ 11.6 µg/mL)
Activity [5]: Active
